Assays:
[1] = tested on: total RNA from PBMCs; test: RNA-seq gene expression before and after 4 weeks of amisulpride treatment; assay type: in vivo, human
From the text: (§1) The cohort analysed in this study was obtained from the OPTiMiSE clinical trial (http://www.optimisetrial.eu) (29). After providing written informed consent, 491 patients with a first episode psychosis were included and 453 started medication. All patients were diagnosed with schizophrenia, schizophreniform disorder or schizoaffective disorder according to the Diagnostic and Statistical Manual of Mental Disorders, Fourth Edition (DSM-IV) and confirmed on the basis of the Mini International Neuropsychiatric Interview Plus (M.I.N.I. Plus) (30) (table 4). At baseline, patients were medication-naïve or minimally-treated (any antipsychotic medication used for […] 2 weeks in the previous year or for a total of 6 weeks in their lifetime) and were ill for no longer than 2 years. Only subjects involved in the single-treatment arm (phase 1) of the trial were considered for this study (29). All patients were treated for 4 weeks with amisulpride (200-800 mg/day orally). At the end of the 4-week treatment, the blood concentration of antipsychotic used has been determined. This measurement provided a reliable indication of the treatment compliance of individual patients.
A DNase digestion procedure was added after extraction. Total RNA was purified using the RNA Clean & Concentrator™-5 kit following the manufacturer's instructions (Zymo Research Corp., Irvine, USA). RNA quantification was performed on a NanoDrop™ 8000 spectrophotometer, in duplicate. The quality and integrity of the RNA samples were assessed using an Agilent Bioanalyzer 2100 and the RNA6000 Nano Labchip kit (Agilent Technologies). Only samples with an RNA integrity number (RIN) higher than 7 were selected. Three hundred and seventy-six RNA samples fulfilled quality control criteria for RNA-seq analyses, corresponding to two RNA samples (one at inclusion and one after 4 weeks of treatment) for 188 subjects. Forty-eight additional RNAs were available for replication studies, in 24 independent subjects.
All libraries were prepared using the Illumina TruSeq Stranded Total RNA with Ribo-Zero Globin kit (Illumina Inc., San Diego, Calif., U.S.A.), which removes ribosomal RNA and globin mRNA. Libraries were prepared using one microgram of total RNA as initial input and following the standard protocols. After library quality control, 2×100 bp paired-end (PE) sequencing was performed on a HiSeq4000 system (Illumina), pooling a maximum of 6 samples on each lane, in order to reach 40 to 50 million of PE-reads for each sample. The Illumina pipeline was used to generate raw RNA sequencing data (fastq files) for each sample. Sequence quality controls were performed, using FastQC and in-house bioinformatics pipelines, from a sampling of 2×10 million reads in order to assess the levels of read duplicates, adapters, remaining rRNA and the GC content. Reads were trimmed for adapters and low-quality bases (Phred quality score <30) using Trimmomatic software (v.0.32). Reads were then mapped to the Genome Reference Consortium human genome assembly 37 (GRCh37) reference genome (hg19) using Tophat software (v.2.0.13). Read mapping quality was assessed using RNA-SeQC software. Then, gene-level quantification in read counts was performed by HTSeq software (v.0.6.1), using gene annotation from Ensembl v.86. All downstream analyses were conducted using the statistical software R (v.3.2.4) and Bioconductor R packages. Genes with counts-per million (cpm) below 1 in more than two third of the samples were considered unexpressed and removed from the analysis using edgeR package (v.3.12.1). Raw gene counts matrix has been normalized to account for differences in sequencing depth and RNA composition using the “median ratio” method implemented in the DESeq2 package (v.1.16.1). To avoid batch effects as confounding factors, all subjects had their 2 time-points in a same batch. […]

[2] = Clinical response (total PANSS score change) over 4 weeks of amisulpride, OPTiMiSE first episode psychosis; assay type: in vivo, human
From the text: as §1
A clinical response to treatment can be defined according to many criteria. […] Note that good responders were slightly older than poor responders with a lower duration of untreated psychosis and more positive symptoms (data not shown).

[3] = good responders (n = 113), 4 weeks amisulpride
[4] = poor responders (n = 75), 4 weeks amisulpride
[5] = admixture model of total PANSS score change over 4 weeks of treatment, 200-800 mg/day orally
[6] = of 188 subjects, 4 weeks of treatment

CCN1CCCC1CNC(=O)c1cc(S(=O)(=O)CC)c(N)cc1OC (stereo not drawn) [amisulpride, 4-amino-N-((1-ethyl-2-pyrrolidinyl)methyl)-5-(etgylsulfonyl)-2-methoxybenzamide]
FC, fold-change at week 4 relative to the expression level at inclusion: GALNT14 ([1]; GALNT14, poor responders (n = 75), 4 weeks amisulpride): 1.04
FC, fold-change at week 4 relative to the expression level at inclusion: GUCY1B3 [1, 3]: 1.14
FC, fold-change at week 4 relative to the expression level at inclusion: GUCY1B3 [1, 4]: 1.05
FC, fold-change at week 4 relative to the expression level at inclusion: HOMER3 [1, 3]: 0.84
FC, fold-change at week 4 relative to the expression level at inclusion: HOMER3 [1, 4]: 1.09
FC, fold-change at week 4 relative to the expression level at inclusion: KAZN [1, 3]: 0.83
FC, fold-change at week 4 relative to the expression level at inclusion: KAZN [1, 4]: 0.94
FC, fold-change at week 4 relative to the expression level at inclusion: KIAA0319 [1, 3]: 0.83
FC, fold-change at week 4 relative to the expression level at inclusion: KIAA0319 [1, 4]: 0.94
FC, fold-change at week 4 relative to the expression level at inclusion: LINC00963 [1, 3]: 0.91
FC, fold-change at week 4 relative to the expression level at inclusion: LINC00963 [1, 4]: 1.08
FC, fold-change at week 4 relative to the expression level at inclusion: NFE4 [1, 3]: 0.83
FC, fold-change at week 4 relative to the expression level at inclusion: NFE4 [1, 4]: 0.95
FC, fold-change at week 4 relative to the expression level at inclusion: NLRP6 [1, 3]: 0.81
FC, fold-change at week 4 relative to the expression level at inclusion: NLRP6 [1, 4]: 1.09
FC, fold-change at week 4 relative to the expression level at inclusion: NLRP12 [1, 3]: 0.87
FC, fold-change at week 4 relative to the expression level at inclusion: NLRP12 [1, 4]: 1.08
FC, fold-change at week 4 relative to the expression level at inclusion: P2RY12 [1, 3]: 1.14
FC, fold-change at week 4 relative to the expression level at inclusion: P2RY12 [1, 4]: 1.10
FC, fold-change at week 4 relative to the expression level at inclusion: P4HA2 [1, 3]: 0.89
FC, fold-change at week 4 relative to the expression level at inclusion: P4HA2 [1, 4]: 1.04
FC, fold-change at week 4 relative to the expression level at inclusion: PLB1 [1, 3]: 0.85
FC, fold-change at week 4 relative to the expression level at inclusion: PLB1 [1, 4]: 0.99
FC, fold-change at week 4 relative to the expression level at inclusion: SLC4A4 [1, 3]: 1.15
FC, fold-change at week 4 relative to the expression level at inclusion: SLC4A4 [1, 4]: 0.93
FC, fold-change at week 4 relative to the expression level at inclusion: TRPC6 [1, 3]: 1.26
FC, fold-change at week 4 relative to the expression level at inclusion: TRPC6 [1, 4]: 0.97
FC, fold-change at week 4 relative to the expression level at inclusion: WLS [1, 3]: 0.87
FC, fold-change at week 4 relative to the expression level at inclusion: WLS [1, 4]: 0.98
DEGs before vs after treatment that survived BH-correction ([1]; good responders only, FDR threshold of 0.1, 16,204 genes expressed in PBMCs): 32 genes
proportion of good responders [2, 5]: 56%
proportion of poor responders [2, 5]: 44%
mean reduction of total PANSS score ([2]; good responders subpopulation of the admixture model, 4 weeks of treatment): 36.3%
patients with a less than 20% reduction in total PANSS score [2, 6]: 75 patients
patients with a more than 20% reduction in total PANSS score [2, 6]: 113 patients
mean PANSS total reduction ([2]; poor responders subpopulation of the admixture model, 4 weeks of treatment): 13.0%

Source: patent US20220290237A1, “METHOD FOR PREDICTING THE RESPONSE OF ANTIPSYCHOTIC DRUGS” (INSERM (INSTITUT NATIONAL DE LA SANTÉ ET DE LA RECHERCHE …, priority 2019, published 2022)
